Key:
CB2 [1] = target: T1, CB2 (Homo sapiens, UniProt P34972); assay: In vitro competitive binding assay, [3H]CP55,940 displacement, hCB2 membranes; set-up: purchased PerkinElmer; host or cells: CHO-K1 cells, stably transfected (membrane preparation); conditions: CHO-K1 membranes with human CB2, 1.4 nM [3H]CP55,940, Cheng-Prusoff, three experiments in triplicates; read-out: KiCB2
Method: The following test was carried out in order to determine the binding affinity of the compounds of formula I towards CB2 and CB1:
Competitive binding reactions were initiated by the addition of a membrane preparation obtained from CHO-K1 cells stably transfected with human CB1 and CB2, respectively, from PerkinElmer (0.5 pig/tube for hCB1 and hCB2) into incubation tubes. As displacer, 1.4 nM [^3H]CP55,940 (PerkinElmer) was used and 6 to 10 concentrations (ranging from 1 pM to 10 μM) of displacing ligand (compound to test) in assay buffer (50 mM TRIS, 1 mM EDTA, 3 mM MgCl2 and 0.05% bovine serum albumin, pH adjusted to 7.4) were added. Nonspecific binding was defined by the presence of 5 μM WIN-55212-2. After incubation at 30° C. for 90 min reactions were terminated by the addition of 3 mL ice cold assay buffer followed by rapid vacuum filtration through a Whatman GF/C filter (pre-soaked for 2 h in 0.05% polyethylenimine in water) and washed twice with 3 mL ice cold assay buffer. The bound activity was counted in a Beckman LS 6500 Liquid Scintillation Counter after adding 3 mL scintillation cocktail (Ultima Gold, Perkin Elmer) and thorough shaking. For each mean value three experiments, each in triplicates, were performed. K, values were determined with the equation from Cheng-Prusoff.

[2] = Distribution coefficient (log D), shake-flask method; type: physicochemical; conditions: octanol / phosphate buffer pH 7.4, shake-flask, radiotracer
Method: The partition coefficient D was determined by the shake-flask method. Octanol saturated with phosphate buffer pH 7.4 (0.5 mL) and phosphate buffer saturated with octanol (0.5 mL) were mixed with radiotracer of interest (^˜3 MBq). The samples were shaken for 15 min and then centrifuged at 5000 g for 5 min. Radioactivity in each phase was measured in a gamma counter (Wizard, PerkinElmer). Log D is expressed as the logarithm of the ratio between the radioactivity concentrations (Bq/mL) of the octanol and the buffer phase.

CB2 [3] = assay: In vitro autoradiography of rat and mouse spleen slices; type: binding; conditions: 0.2 nM radioligand; for binding to spleen slices, displaced by excess of GW405833: blockade 5 μM GW405833
Method: (§1) Rodent (mouse and rat) spleen tissue were embedded in TissueTek and cut into 20 μm-thick sections on a Cryostat HM 505 N (Microm) at −15° C. (blade and block). The slices were absorbed on SuperFrost Plus slides (Menzel) and stored at −80° until used. For the experiment, the slices were thawed on ice for 10 min before conditioning in incubation buffer (50 mM TRIS/HCl, 5% BSA, pH 7.4) on ice for 10 min. The slices were then dripped with 600 μL of radioligand solution (0.2 nM) in incubation buffer and incubated for 15 min at rt in a humid chamber. For blockade conditions, the slices were dripped with 600 μL of a mixture of radioligand and GW405833 (5 μM), a specific CB2 partial agonist. After incubation, the slices were washed with washing buffer (50 mM TRIS/HCl, 1% BSA, 5% EtOH, pH 7.4) for 2 min (2×) and with distilled water for 5 s (2×) on ice. After drying for 10 min at rt, the slices were exposed (30 min) to appropriate phosphor imager plates (Fuji) and the films were scanned in a BAS5000 reader (Fuji).

CB2 [4] = target: T2, CB2 (Rattus norvegicus, UniProt Q9QZN9); set-up: host or cells: rats in vivo (Mu et al., J. Neurochem. 2013); conditions: cited from earlier work
T2 sequence (Q9QZN9 1-360): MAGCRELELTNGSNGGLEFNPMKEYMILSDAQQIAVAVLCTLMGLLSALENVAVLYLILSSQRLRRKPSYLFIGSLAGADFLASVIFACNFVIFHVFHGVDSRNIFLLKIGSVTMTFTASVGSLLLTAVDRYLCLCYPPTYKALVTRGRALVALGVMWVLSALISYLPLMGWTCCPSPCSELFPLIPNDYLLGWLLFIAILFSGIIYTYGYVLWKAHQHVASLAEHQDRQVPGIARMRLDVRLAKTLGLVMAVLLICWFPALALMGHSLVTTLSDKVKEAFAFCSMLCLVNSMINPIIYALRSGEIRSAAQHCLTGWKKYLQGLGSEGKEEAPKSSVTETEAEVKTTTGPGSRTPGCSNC

[5] = in vitro transport assay, radiolabelled KD2; cited from earlier work
[6] = cited from earlier work
CB2 [7] = target: T3, CB2 (Mus musculus, UniProt P47936); assay: LPS mouse model of neuroinflammation, small animal PET brain scans; type: in vivo, CD1 male mice
T3 construct: from tissue; host or cells: brain of living CD1 male mice (PET)
Method: As a model of neuroinflammation, six CD1 male mice were injected ip (100-150 μl) with 10 mg/kg lipopolysaccharide (LPS), Escherichia coli strain O111:B4, or vehicle (saline) 5 days prior to PET. […] For blocking conditions, 2.0 mg/kg GW405833 was injected sc 30 min before tracer application. Depth of anesthesia was monitored by measuring respiratory frequency (SA Instruments, Inc., Stony Brook, USA). Body temperature was controlled by a rectal probe and kept at 37° C. by a thermocoupler and a heated air stream. Data were reconstructed in user-defined time frames with a voxel size of 0.3875×0.3875×0.775 mm^3 by 2-dimensional-ordered subsets expectation maximization (2D-OSEM). Random and single but no attenuation correction was applied. PET acquisitions were followed by a CT for anatomical orientation. Image files were analyzed with PMOD 3.5 software (PMOD Technologies Ltd., Zurich, Switzerland). Tissue radioactivity was expressed as standardized uptake values (SUV), that is, the decay-corrected radioactivity per cm^3 divided by the injected radioactivity dose per gram of body weight.

CB2 [8] = target: T1, CB2; assay: Autoradiography with post mortem spinal cord slices of ALS patients; type: binding; set-up: from tissue; host or cells: human post mortem ALS spinal cord sections; conditions: 0.2 nM tracer, absence or presence of 5 μM GW405833
Method: as §1
To evaluate the potential of our novel CB2 PET tracer in imaging ALS, post mortem spinal cord tissues from ALS patients were investigated in autoradiography experiments. Human post mortem ALS spinal cord tissue samples were embedded in TissueTek and cut into 20 μm-thick sections on a Cryostat. Autoradiography was performed as described in section “Example 5”.

CB2 [9] = target: T2, CB2; type: in vivo, male Wistar rats; set-up: from tissue; host or cells: organs of male Wistar rats after iv tracer injection; conditions: baseline vs blocking with 1.5 mg/kg GW405833, Wistar rats
Method: For blocking conditions, GW405833 (1.5 mg/kg) was injected 30 min before the experiment (n=3). Animals were sacrificed under anesthesia with isoflurane by decapitation at 15 min post injection (p.i). Organs were collected, weighed and radioactivity measured in a gamma-counter. The accumulated radioactivity in the organs was expressed as part per thousand normalized injected dose per gram of tissue (% o normalized ID/g tissue).

T1 sequence (P34972 whole entry): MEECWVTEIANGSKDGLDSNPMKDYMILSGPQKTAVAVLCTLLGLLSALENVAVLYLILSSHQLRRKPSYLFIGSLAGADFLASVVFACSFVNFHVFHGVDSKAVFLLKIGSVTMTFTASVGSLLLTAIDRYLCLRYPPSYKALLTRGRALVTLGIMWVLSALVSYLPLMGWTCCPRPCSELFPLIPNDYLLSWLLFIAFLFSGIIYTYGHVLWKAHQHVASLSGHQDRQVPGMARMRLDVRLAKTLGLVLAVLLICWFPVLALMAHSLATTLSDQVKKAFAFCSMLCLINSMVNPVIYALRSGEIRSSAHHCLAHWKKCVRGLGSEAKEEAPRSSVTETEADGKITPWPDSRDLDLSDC
T3 sequence (P47936 whole entry): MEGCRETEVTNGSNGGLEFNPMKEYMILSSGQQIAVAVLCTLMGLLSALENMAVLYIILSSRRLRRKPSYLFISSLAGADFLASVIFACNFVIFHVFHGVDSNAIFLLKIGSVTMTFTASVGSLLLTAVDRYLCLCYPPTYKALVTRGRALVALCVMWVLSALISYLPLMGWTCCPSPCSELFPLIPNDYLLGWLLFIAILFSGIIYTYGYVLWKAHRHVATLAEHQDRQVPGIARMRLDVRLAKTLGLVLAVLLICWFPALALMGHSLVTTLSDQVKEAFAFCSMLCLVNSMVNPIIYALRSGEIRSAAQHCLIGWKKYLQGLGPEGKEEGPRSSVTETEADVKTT

Compound `CCOCCn1cc(C(=O)NC23CC4CC(CC(F)(C4)C2)C3)c(=O)c2cccc(OC)c21` [RS-030, 1-(2-ethoxyethyl)-N-(3-fluoroadamantyl)-8-methoxy-4-oxo-1,4-dihydroquinoline-3-carboxamide] has a Ki (CB2 [1]) of 2.1 ± 1.5 nM.
For `COc1cccc2c(=O)c(C(=O)NC34CC5CC(CC(C5)C3)C4)cn(CCOCC[18F])c12` [[^18F]RS-126], the logD [2] was 1.99, the “unspecific binding on spleen slices” value (CB2 [3]) was “only little unspecific binding” and the “binding to spleen slices, displaced by excess of GW405833” value (CB2 [3]) was “high binding to spleen”.
Compound `CCCCn1cc(C(=O)NC2CCCC2)c(=O)c2cccc(OC)c21` [RS-007, 1-butyl-N-cyclopentyl-8-methoxy-4-oxo-1,4-dihydroquinoline-3-carboxamide] has a Ki (CB2 [1]) of 19.7 ± 8.8 nM.
Compound `COc1cccc2c(=O)c(C(=O)NC(C)(C)C)cn(CCCF)c12` [RS-011, N-(tert-butyl)-1-(3-fluoropropyl)-8-methoxy-4-oxo-1,4-dihydroquinoline-3-carboxamide] has a Ki (CB2 [1]) of 750 ± 780 nM.
In the case of `COc1cccc2c(=O)c(C(=O)NC34CC5CC(CC(C5)C3)C4)cn(CCOCCF)c12` [RS-126, N-(1-adamantyl)-1-(2-(2-fluoroethoxy)ethyl)-8-methoxy-4-oxo-1,4-dihydroquinoline-3-carboxamide], the Ki (CB2 [1]) is reported as 1.2 ± 0.8 nM.
Compound `CCCCn1cc(C(=O)NCC2CC2)c(=O)c2cccc(OC)c21` [RS-008, 1-butyl-N-(cyclopropylmethyl)-8-methoxy-4-oxo-1,4-dihydroquinoline-3-carboxamide] has a Ki (CB2 [1]) of 78.8 ± 33.1 nM.
For `CCCCCn1cc(C(=O)NC23CC4CC(CC(C4)C2)C3)c(=O)c2cccc(OC)c21` [KD2, N-(1-adamantyl)-1-pentyl-8-methoxy-4-oxo-1,4-dihydroquinoline-3-carboxamide], the distribution in brain (CB2 [4]; in vivo PET experiments) is given as “relatively low”, the spleen uptake (CB2 [4]; rats, radiolabelled KD2) is given as “high spleen uptake” and the “blood-brain barrier (BBB) passage” value [5] is given as “moderate”. For the same compound, the Ki (CB2 [1]) was 1.7 ± 2 nM and the “log D value at pH 7.4” value [6] was 3.29.
`CCOCCn1cc(C(=O)NC23CC4CC(CC(O)(C4)C2)C3)c(=O)c2cccc(OC)c21` [RS-028, 1-(2-ethoxyethyl)-N-(3-hydroxyadamantan-1-yl)-8-methoxy-4-oxo-1,4-dihydroquinoline-3-carboxamide] showed a Ki (CB2 [1]) of 0.8 ± 0.8 nM.
For `CCOCCn1cc(C(=O)NC23CC4CC(CC(C4)C2)C3)c(=O)c2cccc(OCCF)c21` [RS-122, N-(1-adamantanyl)-1-(2-ethoxyethyl)-8-(2-fluoroethoxy)-4-oxo-1,4-dihydroquinoline-3-carboxamide], the Ki (CB2 [1]) was 72 ± 102 nM.
In the case of `CCOCCn1cc(C(=O)NC23CC4CC(CC(C4)C2)C3)c(=O)c2cccc(OC)c21` [[^11C]RS-016, N-(1-adamantyl)-1-(2-ethoxyethyl)-8-methoxy-4-oxo-1,4-dihydroquinoline-3-carboxamide], the “log D pH 7.4” value [2] is reported as 2.78, the “tracer accumulation in brain regions after LPS treatment compared to vehicle group” value (CB2 [7]; 5 days after 10 mg/kg LPS ip, whole brain, cortex, hippocampus, cerebellum) is reported as “Increased” and the “tracer accumulation in brain regions after blockade” value (CB2 [7]; LPS mice, 2 mg/kg GW405833 sc 30 min before tracer) is reported as “reduced in all brain regions”. For the same compound, the “binding to ALS spinal cord tissue” value (CB2 [8]) was “high specific binding”, the “unspecific binding on spleen slices” value (CB2 [3]) was “only little unspecific binding” and the “binding to spleen slices, displaced by excess of GW405833” value (CB2 [3]) was “high binding to spleen”. For the same compound, the “share of total activity in spleen tissue due to specific CB2 binding” value (CB2 [9]) was 78%.
Compound `CCCCn1cc(C(=O)NC23CC4CC(CC(C4)C2)C3)c(=O)c2cccc(OC)c21` [RS-005, N-(1-adamantyl)-1-butyl-8-methoxy-4-oxo-1,4-dihydroquinoline-3-carboxamide] has a Ki (CB2 [1]) of 3.3 ± 0.2 nM.
Work on `CCCCn1cc(C(=O)NC(C)(C)C)c(=O)c2cccc(OC)c21` [RS-006, N-(tert-butyl)-1-butyl-8-methoxy-4-oxo-1,4-dihydroquinoline-3-carboxamide] yielded a Ki (CB2 [1]) of 8.2 ± 5.5 nM.
Work on `CCOCCn1cc(C(=O)NCCc2ccccc2)c(=O)c2cccc(OC)c21` [RS-022, 1-(2-ethoxyethyl)-8-methoxy-4-oxo-N-phenethyl-1,4-dihydroquinoline-3-carboxamide] yielded a Ki (CB2 [1]) of 360 ± 240 nM.

— patent US20170174632A1, “4-OXO-1, 4-DIHYDROQUINOLINE-3-CARBOXAMIDE AS SELECTIVE LIGAND FOR CANNABINOID RECEPTOR 2 FOR DIAGNOSIS AND THERAPY” (priority 2014, published 2017)
